From patent US8530381B2, “Active compound combinations” (Bayer CropScience AG, priority 2009, dated 2013)

Key:
[1] = tested on: Pyrenophora teres; assay: Pyrenophora teres-test (barley)/preventive; assay type: in vivo; details: preventive spray, evaluated 8 days after inoculation
Description: (§1) Here, the efficacy is determined in %. 0% means an efficacy which corresponds to that of the control, whereas an efficacy of 100% means that no infection is observed.
(§2) If the actual fungicidal action exceeds the calculated value, the action of the combination is superadditive, i.e. a synergistic effect is present. In this case, the actually observed efficacy must exceed the value calculated using the above formula for the expected efficacy (E).
Pyrenophora teres-Test (Barley)/Preventive
(§3) Solvent: 49 parts by weight of n,n-dimethylacetamid
(§4) Emulsifier: 1 part by weight of alkylaryl polyglycol ether
(§5) To produce a suitable preparation of active compound, 1 part by weight of active compound or active compound combination is mixed with the stated amounts of solvent and emulsifier, and the concentrate is diluted with water to the desired concentration.
(§6) To test for preventive activity, young plants are sprayed with the preparation of active compound or active compound combination at the stated rate of application.
After the spray coating has been dried, the plants are sprayed with a spore suspension of Pyrenophora teres. The plants remain for 48 hours in an incubation cabinet at approximately 20° C. and a relative atmospheric humidity of approximately 100%. […]
The test is evaluated 8 days after the inoculation. […]

[2] = tested on: Blumeria graminis f.sp. hordei; assay: Blumeria-test (barley)/preventive; assay type: in vivo; details: preventive spray, application rate 62,5 g/ha, evaluated 7 days after inoculation
Description: as §1, §2
Blumeria Test (Barley)/Preventive
as §3, §4, §5, §6
After the spray coating has been dried, the plants are dusted with spores of Blumeria graminis f.sp. hordei.
The plants are placed in the greenhouse at a temperature of approximately 18° C. and a relative atmospheric humidity of approximately 80% to promote the development of mildew pustules.
The test is evaluated 7 days after the inoculation. 0% means an efficacy which corresponds to that of the control, while an efficacy of 100% means that no disease is observed.

Compound: OC(Cc1ccccc1Cl)(Cn1nc[nH]c1=S)C1(Cl)CC1 (centres unmarked) [1.41, prothioconazole]
- Efficacy in % found ([1]; application rate 125 g/ha): 70%

Compound: Cn1cc(C(=O)Nc2ccc(F)cc2-c2ccc(Cl)c(Cl)c2)c(C(F)F)n1 [2.2, bixafen]
- Efficacy in % found [2]: 10%

Compound: CO/N=C(/C(=O)OC)c1ccccc1CO/N=C(\C)c1cccc(C(F)(F)F)c1 [3.17, trifloxystrobin]
- Efficacy in % found [2]: 80%

Compound: CCN(C)/C=N/c1cc(C)c(Oc2nc(Cc3ccc(Cl)cc3)ns2)cc1C [I-a]
- Efficacy in % found ([1]; application rate 62,5 g/ha): 40%
- Efficacy in % found [2]: 40%
